{"source": "patent US20230092232A1", "about": "“COMPOUNDS THAT MODULATE ANTI-TUMOR IMMUNITY AND METHODS OF DOING THE SAME” (University of Florida Research Foundation, Incorporated, priority 2020, published 2023)", "key": {"HLA alleles": {"system": "HLA alleles", "conditions": "cited from earlier work"}, "HLA-B*57:01": {"molecular_target": "HLA-B*57:01 (Homo sapiens, UniProt P01889, D201E/D98Y/E176V/E187L/E204Q/E69M/E70A/G107R/I90N/K202T/L105A/L119I/N104I/N87E/Q89R/Q94S/R106L/R155S/R180L/R86G/S101N/S121V/S35A/S48A/T118I/V36M/Y140S/Y91M)", "conditions": "cited from earlier work"}, "[1]": {"system": "peripheral blood mononuclear cells from hypersensitive HLA-B*57.01+ patients", "conditions": "cultured with abacavir in vitro; cited from earlier work"}, "[2]": {"conditions": "cited from earlier work"}, "IMEA cells": {"system": "IMEA cells", "assay": "In vitro killing of IMEA HCC cells, with or without BALB/c splenocytes", "assay_type": "cell-based, mouse", "parameters": "IMEA cell killing: unit of the concentration uncertain", "conditions": "for enhanced killing of IMEA HCC: in vitro screening with T cells", "experimental": "Prior to validation in human systems, a mouse system targeting hepatocellular carcinoma (HCC), the most common form of liver cancer, was used. IMEA is a murine HCC line of the H2^d haplotype, expressing the H2-D^d, H2-K^d, and H2-L^d allelic variants.\n(§1) In a first set of experiments, drugs (e.g., small molecules) that bind IMEA MHC were selected from a database compiled using the in silico modeling and scoring methodology disclosed herein, and were tested for T cell stimulation and HCC killing in vitro. The crystal structure of H2-D^d was used as the basis for in silico selection of FDA-approved drugs predicted to bind the antigen binding cleft. DOCK6, a structure-based design program for early drug discovery (available for download at http://dock.compbio.ucsf.edu/) was used to screen 1,207 FDA approved small molecule drugs by parallel processing at the University of Florida High Performance Computing Center. An initial 1,207 FDA approved compounds were selected based upon their predicted ability to bind the HLA-A2 supertype, and thus their predicted efficacy across a wide swath of individuals. The top 40 scoring compounds were obtained from the National Cancer Institute Developmental Therapeutics Program.\nIMEA cells were seeded in 24-well plates. At 30% confluence of IMEA cells, 0.5×10^6 of BALB/c mouse splenocytes were added to half of the wells. The compounds under evaluation were incubated with IMEA cells in concentrations […] and 1 mM, and supernatant was subsequently collected."}, "H2-D^d T cells": {"system": "H2-D^d T cells", "assay": "In vitro T cell stimulation in the mouse HCC system", "assay_type": "cell-based", "experimental": "as §1\nIMEA cells were seeded in 24-well plates. At 30% confluence of IMEA cells, 0.5×10^6 of BALB/c mouse splenocytes were added to half of the wells. The compounds under evaluation were incubated with IMEA cells in concentrations of 10 mM and 1 mM, and supernatant was subsequently collected."}, "[3]": {"system": "PBMCs from an HLA-A2 expressing individual (UF 86)", "assay": "Ex vivo T cell stimulation assay, flow cytometry, HLA-A2 expressing PBMCs", "assay_type": "cell-based, human", "conditions": "for autologous mixed lymphocyte reaction: HLA-A2 expressing cells, FIG. 5", "experimental": "Third, top scoring compounds were tested for their ability to modulate proliferation of peripheral blood mononuclear cells (PBMCs) from healthy individuals using ex vivo T cell stimulation assays. Here, the drugs predicted to bind HLA-A2 (FIGS. 4A-4I) were tested using PBMCs from HLA-typed normal individuals. In assays, drugs were incubated with PBMCs (for up to 14 days), and functional characteristics of the responding T cell population were assayed utilizing flow cytometry (e.g., using antibodies specific for CD3 and CD8). PBMCs were stimulated with drugs at […] per ml with interleukin-2 (IL-2) supplemented on day 2. […] PBMCs from an HLA-A2 expressing individual (“UF 86” is homozygous for HLA-A*02:01) were incubated with a panel of drugs predicted to bind HLA-A2 by molecular docking. PBMCs from an individual lacking HLA-A2 (“UF 85”) served as a control for HLA allele specificity. Cells were stained with antibodies specific for CD3, CD8 (cytotoxic T lymphocyte markers), CD69, and CD107a (LAMP-1) (activation markers) to identify those drugs from the top scoring grouping that modify cytotoxic T lymphocyte activity."}}, "note": "“Also recorded” adds a separate entry of the source.", "data": [{"molecule": "NNc1nncc2ccccc12", "note": "[Hydralazine]", "values": [{"measurement": "HLA allele association(s) with adverse drug reaction", "setting": "HLA alleles", "result": "DR4"}]}, {"molecule": "Nc1nc(NC2CC2)c2ncn([C@H]3C=C[C@@H](CO)C3)c2n1", "note": "[Abacavir]", "values": [{"measurement": "CD8+ T cell activity", "setting": "HLA-B*57:01; by binding HLA-B*57:01", "result": "enhances"}, {"measurement": "polyclonal T cell responses", "setting": "HLA-B*57:01; drug naïve individuals that carry the HLA-B*57:01 allele", "result": "stimulates"}, {"measurement": "immune response of PBMCs (interferon-γ, tumor necrosis factor-α, other inflammatory cytokines)", "setting": "[1]", "result": "detectable immune response"}, {"measurement": "risk of a hypersensitivity reaction", "setting": "[2]; HLA-B*57:01 patient", "result": "~50", "unit": "%"}, {"measurement": "overall incidence rate of hypersensitivity", "setting": "[2]; no genetic prescreening, HLA-B*57:01+ and HLA-B*57:01- individuals", "result": "~6", "unit": "%"}]}, {"molecule": "Nc1ncn([C@@H]2O[C@H](CO)[C@@H](O)[C@H]2O)c(=O)n1", "note": "[vidaza]", "values": [{"measurement": "enhanced killing of IMEA HCC", "setting": "IMEA cells", "result": "enhanced killing"}, {"measurement": "stimulation of H2-D^d T cells", "setting": "H2-D^d T cells", "result": "stimulated"}]}, {"molecule": "Cc1cc(NS(=O)(=O)c2ccc(N)cc2)no1", "note": "[Sulfamethoxazole]", "values": [{"measurement": "HLA allele association(s) with adverse drug reaction", "setting": "HLA alleles", "result": "A30; B13; Cw6"}]}, {"molecule": "Asparaginase", "values": [{"measurement": "HLA allele association(s) with adverse drug reaction", "setting": "HLA alleles", "result": "DRB1*07:01"}]}, {"molecule": "Nc1ncn([C@@H]2O[C@H](CO)[C@@H](O)[C@H]2O)c(=O)n1", "note": "[compound 102816]", "values": [{"measurement": "IMEA cell killing", "setting": "IMEA cells; 10 (unit uncertain)", "result": "killed"}]}, {"molecule": "O=CC(Br)=C(Br)C(=O)O", "note": "[drug 11, 2,3-dibromo-4-oxobut-2-enoic acid]", "values": [{"measurement": "number of activated CD8+ cells", "setting": "[3]; day 4, FIG. 5", "result": "enhances"}]}, {"molecule": "O=C(O)c1ccc(I)cc1O", "note": "[drug 10]", "values": [{"measurement": "autologous mixed lymphocyte reaction", "setting": "[3]", "result": "inhibit"}]}, {"molecule": "CN1CCN(C2=Nc3cc(Cl)ccc3Nc3ccccc32)CC1", "note": "[Clozapine]", "values": [{"measurement": "HLA allele association(s) with adverse drug reaction", "setting": "HLA alleles", "result": "B38, DR4, DR2"}]}, {"molecule": "N[C@@H](Cc1ccc(N(CCCl)CCCl)cc1)C(=O)O", "note": "[compound 241286]", "values": [{"measurement": "IMEA cell killing", "setting": "IMEA cells; 10 (unit uncertain)", "result": "killed"}]}, {"molecule": "CC(C)(S)[C@@H](N)C(=O)O", "note": "[d-penicillamine]", "values": [{"measurement": "HLA allele association(s) with adverse drug reaction", "setting": "HLA alleles", "result": "B8, DR3, DR1"}]}, {"molecule": "Cl.Nc1ccn([C@@H]2O[C@H](CO)[C@@H](O)[C@@H]2O)c(=O)n1", "note": "[compound 63878]", "values": [{"measurement": "IMEA cell killing", "setting": "IMEA cells; 1 (unit uncertain)", "result": "killed"}, {"measurement": "IMEA cell killing", "setting": "IMEA cells; 10 (unit uncertain)", "result": "killed"}]}, {"molecule": "CC(=O)Oc1ccccc1C(=O)O", "note": "[Aspirin]", "values": [{"measurement": "HLA allele association(s) with adverse drug reaction", "setting": "HLA alleles", "result": "DPB1*03:01; also recorded: DRB1*13:02-DQB1*06:09"}]}, {"molecule": "O=C(O)CNC(=O)C(Cl)Cl", "note": "[drug 3]", "values": [{"measurement": "autologous mixed lymphocyte reaction", "setting": "[3]", "result": "inhibit"}]}, {"molecule": "NC(=O)c1ncn([C@@H]2O[C@H](CO)[C@@H](O)[C@H]2O)n1", "note": "[compound 163039]", "values": [{"measurement": "IMEA cell killing", "setting": "IMEA cells; 10 (unit uncertain)", "result": "killed"}]}, {"molecule": "NC(=O)c1ncn([C@@H]2O[C@H](CO)[C@@H](O)[C@H]2O)n1", "note": "[ribavirin]", "values": [{"measurement": "enhanced killing of IMEA HCC", "setting": "IMEA cells", "result": "enhanced killing"}, {"measurement": "stimulation of H2-D^d T cells", "setting": "H2-D^d T cells", "result": "stimulated"}]}, {"molecule": "CCOC(=O)CN[C@@H](C(=O)N1CC[C@H]1C(=O)NCc1ccc(/C(N)=N\\O)cc1)C1CCCCC1", "note": "[Ximelagatran]", "values": [{"measurement": "HLA allele association(s) with adverse drug reaction", "setting": "HLA alleles", "result": "DRB1*07, DQA1*02; also recorded: DQB1*07:01"}]}, {"molecule": "N[C@@H](Cc1ccc(N(CCCl)CCCl)cc1)C(=O)O", "note": "[melphalan]", "values": [{"measurement": "enhanced killing of IMEA HCC", "setting": "IMEA cells", "result": "enhanced killing"}, {"measurement": "stimulation of H2-D^d T cells", "setting": "H2-D^d T cells", "result": "stimulated"}]}, {"molecule": "CC1(C)S[C@@H]2[C@H](NC(=O)[C@H](N)c3ccccc3)C(=O)N2[C@H]1C(=O)O", "note": "[Aminopenicillins]", "values": [{"measurement": "HLA allele association(s) with adverse drug reaction", "setting": "HLA alleles", "result": "A2, DRw52"}]}]}
